The text below walks through data of PubChem BioAssay AID330 (DTP/NCI, 2004).

Where “and” joins values, the source holds several entries; their conditions need not be identical. Equal entries are not always repeated. Inconclusive results and toxic doses are left out.

This assay relates to P388 leukemia ip, CD2F1 mice, survival T/C. The assay can be described thus: NCI In Vivo Anticancer Drug Screen. Data for tumor model P388 Leukemia (intraperitoneal) in CD2F1 (CDF1) mice. The note with it: endpoint: median survival time, higher = longer survival. The gist of the method: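 Mice carrying the transplanted tumor received test compound or vehicle. Survival was recorded in each group, and the value is the treated-group measurement divided by that of the vehicle-treated control group.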

The mark [1] stands for this setting: dose: 50.0 mg/kg/injection, schedule: Q01DX005 (ip), vehicle: Klucel (hydroxypropylcellulose) (HPC).
[2] abbreviates: dose: 100.0 mg/kg/injection, schedule: Q01DX005 (ip), vehicle: Klucel (hydroxypropylcellulose) (HPC).
The mark [3] stands for this setting: dose: 200.0 mg/kg/injection, schedule: Q01DX005 (ip), vehicle: Klucel (hydroxypropylcellulose) (HPC).
[4] abbreviates: dose: 60.0 mg/kg/injection, schedule: Q01DX005 (ip), vehicle: saline with Tween-80.
Setting [5] is: dose: 120.0 mg/kg/injection, schedule: Q01DX005 (ip), vehicle: saline with Tween-80.
Setting [6] is: dose: 240.0 mg/kg/injection, schedule: Q01DX005 (ip), vehicle: saline with Tween-80.
Setting [7] is: dose: 50.0 mg/kg/injection, schedule: Q01DX005 (ip), vehicle: saline with Tween-80.
Where [8] appears, read: dose: 100.0 mg/kg/injection, schedule: Q01DX005 (ip), vehicle: saline with Tween-80.
Where [9] appears, read: dose: 200.0 mg/kg/injection, schedule: Q01DX005 (ip), vehicle: saline with Tween-80.
Where [10] appears, read: dose: 100.0 mg/kg/injection, schedule: Q04DX002 (ip), vehicle: saline with Tween-80.
[11] abbreviates: dose: 200.0 mg/kg/injection, schedule: Q04DX002 (ip), vehicle: saline with Tween-80.
Setting [12] is: dose: 400.0 mg/kg/injection, schedule: Q04DX002 (ip), vehicle: saline with Tween-80.

As for `COc1c(O)ccc(C2=Cc3ccc(O)cc3OC2)c1OC`, the T/C (dose: 25.0 mg/kg/injection, schedule: Q01DX005 (ip), vehicle: Klucel (hydroxypropylcellulose) (HPC)) is 99 % of control; the T/C under setting [1] was 98 % of control; the T/C under setting [2] was 109 % of control; the T/C under setting [3] is 106 % of control.

In the case of `CN(N)c1nnnn1-c1ccccc1`, the T/C is, setting by setting: (dose: 50.0 mg/kg/injection, schedule: Q01DX009 (ip), vehicle: Klucel (hydroxypropylcellulose) (HPC)) 104 % of control; (dose: 100.0 mg/kg/injection, schedule: Q01DX009 (ip), vehicle: Klucel (hydroxypropylcellulose) (HPC)) 117 % of control; (dose: 200.0 mg/kg/injection, schedule: Q01DX009 (ip), vehicle: Klucel (hydroxypropylcellulose) (HPC)) 113 % of control.

As for `c1ccc(CNNc2nn[nH]n2)cc1`, the T/C runs as follows: (dose: 100.0 mg/kg/injection, schedule: Q01DX001 (ip), vehicle: Klucel (hydroxypropylcellulose) (HPC)) 96 % of control; (dose: 200.0 mg/kg/injection, schedule: Q01DX001 (ip), vehicle: Klucel (hydroxypropylcellulose) (HPC)) 95 % of control; (dose: 400.0 mg/kg/injection, schedule: Q01DX001 (ip), vehicle: Klucel (hydroxypropylcellulose) (HPC)) 96 % of control.

Consider `Brc1ccc[n+](CCc2ccccc2)c1`, for which the T/C (dose: 12.5 mg/kg/injection, schedule: Q01DX009 (ip), vehicle: saline with Tween-80) was 111 % of control and the T/C (dose: 25.0 mg/kg/injection, schedule: Q01DX009 (ip), vehicle: saline with Tween-80) was 98 % of control.

Consider `O=C(OCc1ccccc1)N1C[C@@H](Br)[C@H](Br)[C@H]1Cc1ccccc1`, for which the T/C is 95 % of control (dose: 100.0 mg/kg/injection, schedule: Q01DX001 (ip), vehicle: distilled water + alcohol) and 100 % of control (dose: 200.0 mg/kg/injection, schedule: Q01DX001 (ip), vehicle: distilled water + alcohol).

As for `COC(=O)CC1(C(=O)OC)C2=C(c3ccccc3CC2)N2CCCC21` (stereo unspecified), the T/C is, setting by setting: (dose: 11.25 mg/kg/injection, schedule: Q01DX009 (ip), vehicle: Klucel (hydroxypropylcellulose) (HPC)) 110 % of control; (dose: 22.5 mg/kg/injection, schedule: Q01DX009 (ip), vehicle: Klucel (hydroxypropylcellulose) (HPC)) 110 % of control; (dose: 45.0 mg/kg/injection, schedule: Q01DX009 (ip), vehicle: Klucel (hydroxypropylcellulose) (HPC)) 102 % of control; (dose: 90.0 mg/kg/injection, schedule: Q01DX009 (ip), vehicle: Klucel (hydroxypropylcellulose) (HPC)) 112 % of control.

As for `CC(=O)N/N=C/c1ccccc1[N+](=O)[O-]`, the T/C by setting is: (dose: 12.5 mg/kg/injection, schedule: Q01DX009 (ip), vehicle: other) 97 % of control; (dose: 25.0 mg/kg/injection, schedule: Q01DX009 (ip), vehicle: other) 96 % of control; (dose: 50.0 mg/kg/injection, schedule: Q01DX009 (ip), vehicle: other) 98 % of control; (dose: 100.0 mg/kg/injection, schedule: Q01DX009 (ip), vehicle: other) 107 % of control.

On to `O=C(CSC(SCC(=O)Nc1ccccc1)c1ccccc1)Nc1ccccc1`, for which the T/C is, setting by setting: (dose: 60.0 mg/kg/injection, schedule: Q01DX005 (ip), vehicle: Klucel (hydroxypropylcellulose) (HPC)) 101 % of control; (dose: 120.0 mg/kg/injection, schedule: Q01DX005 (ip), vehicle: Klucel (hydroxypropylcellulose) (HPC)) 86 % of control.

Consider `FC(F)(F)c1cccc(COCCN2CCN(Cc3cccc(C(F)(F)F)c3)CC2)c1`, for which the T/C by setting is: under setting [4], 103 % of control; under setting [5], 95 % of control; under setting [6], 112 % of control.

Take `CCc1c[nH]c(C=O)c1CC`: the T/C is 100 % of control under setting [4], 100 % of control under setting [5] and 99 % of control under setting [6].

Take `CN1N=Nc2ccccc2NC1=O`: the T/C under setting [7] is 96 % of control, the T/C under setting [8] was 99 % of control and the T/C under setting [9] is 91 % of control.

As to `COC(=O)/C(=C/c1ccccc1)N(C(C)=O)C(C)=O`, the T/C by setting is: under setting [4], 100 % of control; under setting [5], 105 % of control; under setting [6], 107 % of control.

`CCOC(=O)Cc1csc(=S)n1Cc1ccccc1`: the T/C is 103 % of control under setting [7], 108 % of control under setting [8] and 95 % of control under setting [9].

Consider `CCOC(=O)CC(C)=Nc1c(SC)sc(C#N)c1N`, for which the T/C is 97 % of control under setting [10], 95 % of control under setting [11] and 91 % of control under setting [12].

For the molecule `O=C(NCCN1CCN2Cc3[nH]c4ccccc4c3CC2C1)c1ccc([N+](=O)[O-])cc1` (stereo unspecified), the T/C is, setting by setting: under setting [10], 96 % of control; under setting [11], 87 % of control; under setting [12], 86 % of control.

Take `O=S(=O)(/N=C1\c2ccccc2/C(=N\S(=O)(=O)c2ccccc2)C2C3C=CC(C3)C12)c1ccccc1` (stereo unspecified): the T/C (dose: 25.0 mg/kg/injection, schedule: Q01DX001 (ip), vehicle: saline with Tween-80) was 115 % of control; the T/C (dose: 50.0 mg/kg/injection, schedule: Q01DX001 (ip), vehicle: saline with Tween-80) is 100 % of control; the T/C (dose: 100.0 mg/kg/injection, schedule: Q01DX001 (ip), vehicle: saline with Tween-80) is 90 % of control.

`COC(=O)C12OCC34C(CC5C(C)=C(O)C(=O)CC5(C)C3C(O)C1O)OC(=O)C(OC(=O)C=C(C)C)C24` (stereo unspecified) (tested in a mixture with another compound): the T/C was 106 % of control (dose: 0.03 mg/kg/injection, schedule: Q01DX009 (ip), vehicle: saline + alcohol); 113 % of control (dose: 0.06 mg/kg/injection, schedule: Q01DX009 (ip), vehicle: saline + alcohol); 107 % of control (dose: 0.13 mg/kg/injection, schedule: Q01DX009 (ip), vehicle: saline + alcohol); 98 % of control (dose: 0.25 mg/kg/injection, schedule: Q01DX009 (ip), vehicle: saline + alcohol); 94 % of control (dose: 0.5 mg/kg/injection, schedule: Q01DX009 (ip), vehicle: saline + alcohol); 106 % of control (dose: 1.0 mg/kg/injection, schedule: Q01DX009 (ip), vehicle: saline + alcohol). Where the note is “dose: 2.0 mg/kg/injection, schedule: Q01DX009 (ip), vehicle: saline + alcohol”, the T/C is 94 % of control.

Take `CC1(C)CC(O)C2OC2(C)C1` (stereo unspecified): the T/C is, setting by setting: (dose: 50.0 mg/kg/injection, schedule: Q01DX009 (ip), vehicle: saline) 94 % of control; (dose: 100.0 mg/kg/injection, schedule: Q01DX009 (ip), vehicle: saline) 89 % of control; (dose: 200.0 mg/kg/injection, schedule: Q01DX009 (ip), vehicle: saline) 101 % of control.

For `Cc1cc([N+](=O)[O-])ccc1N=Nc1ccc(O)c(C(=O)O)c1`, the T/C by setting is: under setting [7], 105 % of control; under setting [8], 95 % of control.

Regarding `CC(C)CS(=O)(=O)OCCCCOS(=O)(=O)CC(C)C`, the T/C was 115 % of control under setting [1] and 111 % of control under setting [2].

Take `C/C(=N\NC(=S)N1CCCC1)c1nccs1`: the T/C was 109 % of control (dose: 12.5 mg/kg/injection, schedule: Q01DX005 (ip), vehicle: saline with Tween-80); 104 % of control (dose: 25.0 mg/kg/injection, schedule: Q01DX005 (ip), vehicle: saline with Tween-80); 108 % of control and 114 % of control under setting [7].

Regarding `CSc1cc(=O)n2c3ccccc3c3ccnc1c32`, the T/C by setting is: (dose: 2.5 mg/kg/injection, schedule: Q01DX009 (ip), vehicle: saline with Tween-80) 100 % of control and 120 % of control; (dose: 5.0 mg/kg/injection, schedule: Q01DX009 (ip), vehicle: saline with Tween-80) 116 % of control; (dose: 10.0 mg/kg/injection, schedule: Q01DX009 (ip), vehicle: saline with Tween-80) 156 % of control.

Regarding `CN1CCN(CC2CCOc3cc(Cl)ccc3C2=O)CC1` (stereo unspecified), the T/C was 105 % of control (dose: 100.0 mg/kg/injection, schedule: Q04DX003 (ip), vehicle: saline) and 108 % of control (dose: 200.0 mg/kg/injection, schedule: Q04DX003 (ip), vehicle: saline).

With `CC(C)(C)N=C(CCN1CCOCC1)Nc1cccc(Cl)c1`, the T/C is 100 % of control (dose: 50.0 mg/kg/injection, schedule: Q01DX009 (ip), vehicle: saline with Tween-80); 96 % of control (dose: 100.0 mg/kg/injection, schedule: Q01DX009 (ip), vehicle: saline with Tween-80); 97 % of control (dose: 200.0 mg/kg/injection, schedule: Q01DX009 (ip), vehicle: saline with Tween-80).

Turning to `Cc1ccc(C)c2c(C#Cc3ccccc3)c3ccccc3c(C#Cc3ccccc3)c12`, the T/C under setting [1] was 96 % of control, the T/C under setting [2] is 90 % of control and the T/C under setting [3] was 90 % of control.
